In paper PMC8097335, “A High‐Affinity Calmodulin‐Binding Site in the CyaA Toxin Translocation Domain is Essential for Invasion of Eukaryotic Cells” (Advanced Science, 2021):

Legend:
[1] = Peptide translocation across droplet interface bilayers (DIB); type: in vitro ADME; details: TAMRA (dye)-labeled peptide in cis, 15 min; for Peptide in trans droplet, 5 µM holo-CaM in trans: POPC:POPG 9:1 bilayer, CaCl2 2 mM cis vs 0.2 mM trans, epifluorescence, four to seven independent trials
Procedure: weak fluorescence signal. […]
fluorescence signal. The samples were prepared at the following final concentrations: 10 µM […]
concentration of CDZ wa s 14.5 mM in 100% DMSO. Addition of CDZ at a final concentration of 40 µ M gives a final concentration of less than 0.3 % of DMSO in the […]
Peptide translocation followed by droplet interface bilayerexperiments
An aqueous phase is prepared with buffer D or E and the oil phase is prepared with 15 % (v/v) of chloroform and 0.08%(w/v) of lipids (POP C: POP G at a 9:1molar ratio) in squalene.
A population of droplets is obtained by adding 2 µL of the aqueous phase to 20 µL of the oil phase before briefly shaking the mixture to create an invert emulsion. Two droplet populations were prepared: one containing the TAMRA-labeled peptide in buffer D , the “source”, cis-droplets and the other one containing buffer D or E, or in the presence or in the absence of calmodulin, the “capture”, trans -droplets. […] The fluorescence signals of the “source” and the “capture” droplets were monitored by epifluorescence microscopy for 15 minutes with an Olympus microscope and a MicroMax camera (Princeton Instrument). […]
Quantification of the translocation process is possible thanks to the analysis of the fluorescence images of the droplet pairs. Even if fluorescence is not directly proportional to peptide concentration due to photo-bleaching and small volume variations, one can hypothesize that the fluorescence intensities of the “source” and the “capture” droplets are proportional to the ratio of their concentrations. Moreover, as the initial concentration in the “source” droplet is known and as the total amount of peptide is conserved during the experience, we can write that: CCss (tt = 0) × VVss = CCss (tt ) × VVss + CCcc (tt ) × VVcc , where Ci is the concentration of the droplet i, Vi its volume, which was determined from microscopy images (i=”s” for the source droplet and “c” for the capture droplet). […]
CCcc = CCss (tt = 0) × VVss where F i is the fluorescence intensity measured fordroplet i. […]
analyzed in buffer C. […]

[2] = Peptide titrations by SUVs followed by tryptophan fluorescence (solution-to-membrane partition); type: physicochemical; details: POPC:POPG 8:2 SUVs, buffer A pH 7.4, 25 °C, tryptophan fluorescence ratio 330/370 nm; S.D. within ± 10%
Procedure: Lipid vesicles preparation
Small unilamellar vesicles (SUVs) and large unilamellar vesicles (LUVs) were prepared with POPC and POPG at a molar ratio of 8:2, at a lipid concentration of 10 mM in buffer A, as previously described 1. Briefly, SUVs and LUVs were prepared by reverse phase evaporation and filtered through polycarbonate filters of 1 μm and 0.2 μm of pore size diameter to obtain L UV. SUVs were further sonicated. The hydrodynamic diameters and mean net charge of the vesicles were measured by dynamic light scattering (DLS) and electrophoretic mobility, respectively, using a ZetaSizer NanoZS (Malvern Pananalytical , Orsay, France) 11.
Peptide titrations bySUV s and CaM followed by tryptophan fluorescence
Titrations were carried out with a FP-8200 Jasco spectrofluorimeter, equipped with a Pelt ie r - thermostated ETC-272T at 25°C. A bandwidth of 5 nm was used for both excitation and […]
(Hellma, France) with constant stirring. Fluorescence emission was recorded between 300 and […]
400 nm at a scan rate of 100 nm/min, with an excitation wavelength of 280 nm. Fluorescence emission spectra were corrected for SUV or CaM baselines . Fluorescence intensity ratio at 330 nm over 370 nm was use d to measure the partition coefficient (K X) of peptides between the solution andmembrane s 1, 12 and the affinity (K d) of peptides for CaM 13.
Determination of partition coefficient KX and dissociation constant Kd from […]
The partition coefficient KX is defined as the ratio of protein in the lipid (PL) and in buffer […]
(PW) pha se s 12, 14, expressed by: KKXX = [LL ]? , giving[PPWW ] [PPWW ]= [WW], where [W] the […]
concentration of water (55.5 M) and [L] the lipid concentration.
The fraction of peptide partitioned into the membrane, fPL, is equal to:
ffPPLL = [PPLL ][PPTT ]= [PPLL ][PPLL ]+[PPWW ]= 11+([PPWW ])= 11+( [WW]), where PT is the total concentration of peptides [PP TT ]= [PP LL ]+ [PP WW ]. […]
The equations a re fitted to the experimental data using the KaleidaGraph software, providing the KX and K d value s. The partition coefficient is related to the apparent dissociation constant:
KKXX × KKdd = [WW ] and to the free energy of partition ΔG Kx = -RTln(K X), where ΔG is the free energy in kcal/mol, R the gas constant (R = 1.98 x 10-3 kcal/mol/K) and T the temperature i n Kelvin. The free energy of peptide CaM interaction, ∆G Kd, is given by ΔG Kd = RTln(K d).
Sedimentation velocity-Analytical ultracentrifugation (SV -AUC) […]
ratio 1:1 (at 70 µM each). Samples were incubated 2h at 20°C in the ultracentrifuge and, then span at 42,000 rpm in an An-50 Ti rotor. […]

CC[C@H](C)[C@H](NC(=O)[C@H](CCCCN)NC(=O)[C@H](Cc1c[nH]c2ccccc12)NC(=O)[C@H](CC(C)C)NC(=O)[C@H](CC(C)C)NC(=O)[C@H](CC(=O)O)NC(=O)[C@@H](NC(=O)[C@H](CCCNC(=N)N)NC(=O)[C@H](CCC(=O)O)NC(=O)[C@H](CCCNC(=N)N)NC(=O)[C@H](CC(=O)O)NC(=O)[C@H](CC(C)C)NC(C)=O)[C@@H](C)CC)C(=O)N[C@@H](C)C(=O)N[C@@H](CCCNC(=N)N)C(=O)N[C@@H](C)C(=O)NCC(=O)N[C@@H](C)C(=O)N[C@@H](CCCNC(=N)N)C(=O)N[C@@H](CO)C(=O)N[C@@H](C)C(=O)N[C@H](C(=O)NCC(N)=O)C(C)C [H-helix, reference compound]
Peptide in trans droplet, 5 µM holo-CaM in trans [1]: do not accumulate

Ac-ASAHWGQEALQGAQAVAAAQELVHAIALMTQ-NH2 [P454 R12E]
Peptide in trans droplet, 5 µM holo-CaM in trans [1]: do not accumulate | Peptide in trans droplet, 100 µM CaM in trans ([1]; calcium gradient 2 mM cis vs 0.2 mM trans, five to seven independent trials): significant accumulation | Partition coefficient KX [2]: 80 ×10^3
